Results published in patent US20090111798A1, “5,6-DIHYDRO-1H-PYRIDIN-2-ONE COMPOUNDS” (priority 2006, published 2009).
Counter-ions that a name gives are not always drawn.

Each compound was assayed against NS5B polymerase (Hepatitis C virus genotype 1b, UniProt P26663) (assay: biochemical). Conditions: NS5B polymerase inhibition; 20 nM enzyme, 75 min at 28° C.
Method: Compounds were tested for HCV polymerase inhibition. Assays were performed in a 96-well streptavidin-coated FlashPlate using 20 nM enzyme, 0.5μ Ci of [α-^33P]GTP, 0.6 μM GTP, and 250 nM 5′biotinylated oligo (rG13)/poly rC in 20 mM Tris-HCl, pH 7.5, 5 mM MgCl2, 5 mM dithiothreitol, 0.1 g/L bovine serum albumin, and 100 U/mL RNAse inhibitor. The reaction was stopped by aspiration after 75 min at 28° C. and the plate was washed several times. After washing and drying the plate, incorporated radioactivity was counted using a Microbeta scintillation counter. IC50 values were calculated relative to the uninhibited control and inhibition data were fitted to a 4-parameter IC50 equation.

Sequence of NS5B polymerase (P26663 2420-3010): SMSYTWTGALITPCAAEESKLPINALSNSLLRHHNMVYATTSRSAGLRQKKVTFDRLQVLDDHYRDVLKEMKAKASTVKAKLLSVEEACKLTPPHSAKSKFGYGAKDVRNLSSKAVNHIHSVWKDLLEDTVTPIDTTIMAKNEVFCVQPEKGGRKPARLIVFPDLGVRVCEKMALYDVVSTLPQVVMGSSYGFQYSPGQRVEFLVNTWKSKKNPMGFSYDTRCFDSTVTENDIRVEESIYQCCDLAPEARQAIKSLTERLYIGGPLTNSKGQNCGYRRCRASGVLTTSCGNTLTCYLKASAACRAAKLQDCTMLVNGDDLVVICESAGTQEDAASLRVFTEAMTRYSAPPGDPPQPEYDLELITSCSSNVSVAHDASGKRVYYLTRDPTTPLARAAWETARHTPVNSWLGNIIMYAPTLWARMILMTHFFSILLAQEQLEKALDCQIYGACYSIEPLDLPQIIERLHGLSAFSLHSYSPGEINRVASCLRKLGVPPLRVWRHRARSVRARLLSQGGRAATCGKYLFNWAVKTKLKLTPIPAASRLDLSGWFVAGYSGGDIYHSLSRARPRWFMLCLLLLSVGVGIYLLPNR

Compound | IC50 [nM]
NCCS(=O)(=O)Nc1ccc2c(c1)S(=O)(=O)N=C(C1=C(O)[C@@H]3CCC[C@@H]3N(Cc3ccc(F)cc3)C1=O)N2 (relative stereo) [Example 24, cis-2-Amino-ethanesulfonic acid {3-[1-(4-fluoro-benzyl)-4-hydroxy-2-oxo-2,4-a,5,6,7,7a-hexahydro-1H-[1]pyrindin-3-yl]-1,1-dioxo-1,4-dihydro-1λ^6 benzo[1,2,4]thiadiazin-7-yl}-amide] | 20 to 100
CS(=O)(=O)Nc1ccc2c(c1)S(=O)(=O)C=C(C1=C(O)[C@@H]3CCC[C@@H]3N(Cc3ccc(F)cc3)C1=O)N2 (relative stereo) [Example 25, cis-N-{3-[1-(4-Fluoro-benzyl)-4-hydroxy-2-oxo-2,4-a,5,6,7,7a-hexahydro-1H-[1]pyrindin-3-yl]-1,1-dioxo-1,4-dihydro-1λ^6-benzo[1,4]thiazin-7-yl}-methanesulfonamide] | 20 to 100
CS(=O)(=O)Nc1ccc2c(c1)S(=O)(=O)N=C(C1=C(O)[C@@H]3CC=CC[C@@H]3N(Cc3ccc(F)cc3)C1=O)N2 (relative stereo) [Example 37, cis-N-{3-[1-(4-Fluoro-benzyl)-4-hydroxy-2-oxo-1,2,4a,5,8,8a-hexahydro-quinolin-3-yl]-1,1-dioxo-1,4-dihydro-1λ^6 benzo[1,2,4]thiadiazin-7-yl}-methanesulfonamide] | 20 to 100
CN(C)N1C(=O)C(C2=NS(=O)(=O)c3cc(NS(C)(=O)=O)ccc3N2)=C(O)[C@@H]2CCC[C@@H]21 (relative stereo) [Example 38, cis-N-[3-(1-Dimethylamino-4-hydroxy-2-oxo-2,4-a,5,6,7,7a-hexahydro-1H-[1]pyrindin-3-yl)-1,1-dioxo-1,4-dihydro-1λ^6-benzo[1,2,4]thiadiazin-7-yl]-methanesulfonamide hydrochloride] | 1000 to 100000
CS(=O)(=O)Nc1ccc2c(c1)S(=O)(=O)N=C(C1=C(O)[C@@H]3CCC[C@@H]3N(NC3CCC3)C1=O)N2 (relative stereo) [Example 41, cis-N-[3-(1-Cyclobutylamino-4-hydroxy-2-oxo-2,4-a,5,6,7,7a-hexahydro-1H-[1]pyrindin-3-yl)-1,1-dioxo-1,4-dihydro-1λ^6-benzo[1,2,4]thiadiazin-7-yl]-methanesulfonamide trifluoroacetic acid salt] | 20 to 100
CS(=O)(=O)Nc1ccc2c(c1)S(=O)(=O)N=C(C1=C(O)[C@@H]3CCC[C@@H]3N(C3CCCCC3)C1=O)N2 (relative stereo) [Example 43, cis-N-[3-(1-Cyclohexyl-4-hydroxy-2-oxo-2,4-a,5,6,7,7a-hexahydro-1H-[1]pyrindin-3-yl)-1,1-dioxo-1,4-dihydro-1λ^6-benzo[1,2,4]thiadiazin-7-yl]-methanesulfonamide] | 100 to 1000

Now from value to compound:

IC50 [nM] | Compound
< 20 | CC(C)CCN1C(=O)C(C2=NS(=O)(=O)c3cc(NS(C)(=O)=O)ccc3N2)=C(O)[C@H]2CCC[C@H]21 (relative stereo) [Example 17, cis-N-{3-[2-(3-Methylbutyl)-5-hydroxy-3-oxo-2-aza-bicyclo[4.3.0]non-4-en-4-yl]-1,1-dioxo-1,4-dihydro-1λ^6-benzo[1,2,4]thiadiazin-7-yl}-methanesulfonamide]
< 20 | CC(C)(C)CCN1C(=O)C(C2=NS(=O)(=O)c3cc(NS(C)(=O)=O)ccc3N2)=C(O)[C@H]2CCC[C@H]21 (relative stereo) [Example 18, cis-N-{3-[2-(3,3-Dimethylbutyl)-5-hydroxy-3-oxo-2-aza-bicyclo[4.3.0]non-4-en-4-yl]-1,1-dioxo-1,4-dihydro-1λ^6-benzo[1,2,4]thiadiazin-7-yl}-methanesulfonamide]
20 to 100 | CS(=O)(=O)Nc1ccc2c(c1)S(=O)(=O)N=C(C1=C(O)[C@@H]3CCC[C@@H]3N(CCC3CC3)C1=O)N2 (relative stereo) [Example 19, cis-N-{3-[2-Cyclopropylethyl-5-hydroxy-3-oxo-2-aza-bicyclo[4.3.0]non-4-en-4-yl]-1,1-dioxo-1,4-dihydro-1λ^6-benzo[1,2,4]thiadiazin-7-yl}-methanesulfonamide]
